How the values were obtained:
[1] = test system: Beas-2B (bronchial human respiratory epithelial) cells; test: MTT cell viability, healthy Beas-2B cells; format: cell-based; conditions: 3.125-50 µM, 24, 48 and 72 h
[2] = test system: fungal mutants lacking glucosylceramide synthase; conditions: cited from earlier work
[3] = test system: Fusarium solani planktonic cells; set-up: method as in PMID 17240982; conditions: cited from earlier work
B16F10 cells = test: Mitochondrial staining (MitoTracker Red CMXRos), B16F10 cells; format: cell-based, murine; conditions: 50 µM
Method: Figure 2 Psd1 promotes B16F10 live cell membrane permeabilization as monitored by SYTOX Green fluorescence. (A) Psd1 untreated and hydrogen peroxide-treated B16F10 cells. (B) A total of 1.5 × 10^4 B16F10 cells were incubated with 3 or 50 µM Psd1 for 30 min. (C) 1.5 × 10^4 B16F10 cells were incubated with 50 µM Psd1 for 1 h. All experiments were performed at 37 °C. Nucleus staining is shown in green (SYTOXGreen), and mitochondria are shown in red (MitoTracker Red CMXRos). Images are shown at 20× magnification. […] (E) Psd1 induces apoptosis in B16F10 cells. B16F10 cells were treated with 50 µM Psd1 for 24 h and labeled with propidium iodide, and the DNA content was analyzed by flow cytometry for the sub-G0/G1 profile. […]
Figure 3 Fluorescein isothiocyanate (FITC)-Psd1 was localized in the B16F10 live cell nucleus. […] (C) The mean fluorescence intensity (MIF) of MitoTracker and FITC-Psd1 labeled cells measured over time. […]
Images were obtained in the X, Y, and Z planes of the image, giving the image a 3-dimensional depth (Z-stack) at 100× magnification with a Zeiss Cell Observer Yokogawa Spinning Disk confocal microscope (Cell Observed SD, Carl-Zeiss, Oberkochen, Germany) located in the Microscopia Óptica de Luz Gustavo de Oliveira Castro (Plamol) platform in Universidade Federal do Rio de Janeiro. […] On average, thirty cells per field were analyzed in fourteen fields by experiments. […]

[4] = test system: lung inflammatory cells, C57BL/6 mice; test: Lung histology (HE), inflammatory foci; format: in vivo, mouse
Excerpt: Figure 7 Psd1 inhibited the appearance of inflammatory cells in lung tissues. Two animals from each group of the in vivo experiment were anaesthetized and submitted to transcardial perfusion for further histological procedures. The lungs were removed and prepared for hematoxylin and eosin (HE) staining as described in the Materials and Methods. (A) Representative images from the lungs of one animal from each experimental group. […] The left and right panels indicate 10× and 20× magnifications, and the bars represent 200 and […], respectively. (B) Quantification of inflammatory infiltration (± SEM) was obtained in six fields, corresponding to 90% of the tissue. […] Values represent the mean ± SD of two independent experiments analyzed by one-way ANOVA and Bonferroni’s multiple comparison test.
After the above procedure, two animals from each group were anaesthetized and submitted to treatment with 4% paraformaldehyde in 0.1 M phosphate buffer (pH 7.4) by transcardial perfusion. The lung was removed and immersed in the same fixative solution. The lung specimens were sliced into 5 mm pieces, dehydrated through an ascending ethanol series (70, 95, and 100% ethanol for 30 min each) and then embedded in paraffin using standard procedures. Serial 5 µm-thick sections were prepared using a sliding microtome (Leica Microsystems, Wetzlar, Germany). Hematoxylin and eosin (HE) staining wereperformed to quantify possible foci of inflammatory infiltrates and fibrosis in experimental and control animals. The stained sections were observed, and digital images were taken with a Zeiss AxioPhot fluorescence microscope (Carl-Zeiss, Oberkochen, Germany). Specifically, two slices of each sample (six fields of each slice corresponding to approximately 90% of the slice) were used for quantitative analysis to obtain the mean value.

## Psd1: 46-amino acid residue plant defensin isolated from pea seeds, expressed in Pichia pastoris (PDB 1JKZ) (KTCEHLADTYRGVCFTNASCDDHCKNKAHLISGTCHNWKCFCTQNC)
[1]
  Beas-2B cell viability (MTT): no alteration in cell viability was observed even after 72 h of exposure
[2]
  Resistance of mutants to Psd1 antifungal activity and permeabilization: partially resistant
[3]
  Internalization and cell cycle effect: internalized in Fusarium solani planktonic cells, directing their cell cycle impairment and causing fungal endoreduplication
B16F10 cells; 30 min
  Mitochondria red marker (MitoTracker): lower mitochondria red marker
B16F10 cells; 1 h, probably superposition of SYTOXGreen and MitoTracker signals
  Mitochondria red fluorescence (MitoTracker): brighter red fluorescence signal
[4]; 1 mg/kg Psd1 alone, i.v., day 21, p < 0.001 vs B16F10
  Inflammatory foci, Psd1 alone: very low inflammatory foci
[4]; 1 mg/kg Psd1 i.v. with B16F10 cells
  Number of lung inflammatory cells: near zero
[4]; 1 and 3 mg/kg Psd1 i.v. with B16F10 cells, day 21, p < 0.001 vs B16F10
  Accumulation of lung inflammatory cells: significant reduction in the accumulation of inflammatory cells

— paper PMC7219108, “Pisum sativum Defensin 1 Eradicates Mouse Metastatic Lung Nodules from B16F10 Melanoma Cells” (International Journal of Molecular Sciences, 2020)
